# Experimental data: US8207156B2, “Substituted pyrazoline compounds, their preparation and use as medicaments” (Laboratorios Del Dr. Esteve, S.A., priority 2005, dated 2012)
# Where a name gives a salt, the structure may show the parent alone.
# Key:
# [1] = biological target: T1, CB1 receptor (UniProt P20272); test: In-vitro determination of affinity to CB1/CB2-receptors (radioligand [3H]-CP55940 binding); conditions: for Inhibition [%], 10^−7 M: compound at 10^−7 M; for Inhibition [%], 10^−8 M: compound at 10^−8 M
# T1 construct: other: compound at 10^−7 M; radioligand [3H]-CP55940; other: compound at 10^−8 M
# Experimental: (§1) The in-vitro determination of the affinity of the inventive substituted pyrazoline compounds to CB1/CB2-Rezeptors is carried out as described in the publication of Ruth A. Ross, Heather C. Brockie et al., “Agonist-inverse agonist characterization at CB1 and CB2 cannabinoid receptors of L-759633, L759656 and AM630”, British Journal of Pharmacology, 126, 665-672, (1999), whereby the transfected human CB1 and CB2 receptors of Receptor Biology, Inc. are used. The radioligand used for both receptors is [^3H]-CP55940. The respective parts of the description is hereby incorporated by reference and forms part of the present disclosure.
# (§2) Binding affinity to CB1 receptor was evaluated according to a modification of the method described by Govaerts et al., Eur J Pharmac Sci 23, 233-243 (2004). The respective parts of the description is hereby incorporated by reference and forms part of the present disclosure.
# (§3) Briefly, cerebellum from male wistar rats (250-300 g) were carefully dissected on ice and homogenates were prepared with Potter-Helveheim in a cold 50 mM Tris-HCl solution containing 5 mM MgCl2, 1 mM EDTA and 0.25 M sucrose, pH 7.4. The suspension was centrifuged at 1,000×g for 5 minutes. The supernatants were collected and centrifuged 50,000×g for 15 minutes. The resulting pellets were then resuspended in Tris-HCl buffer without sucrose, homogenized and incubated for 15 min at 37° C. in an orbital shaker bath and centrifuged again at 50,000×g for 15 min. Pellets were weighted, resuspended in Tris-HCl buffer without sucrose, homogenized with Ultraturrax at 13,500 rpm for 3×5 seconds and alicuoted in 0.9 ml volumes in Eppendorf tubes. Alicuotes were centrifuged at 20,800×g for 5 minutes, supernatants discarded and pellets were frozen at −80° C. until use. Total protein concentration was determined using the Bio-Rad Lowry method based kit. Competitive binding experiments were performed in presence of 1 nM [^3H]-CP 55,940 in siliconized glass tubes containing 100 μg protein/tube resuspended in 1 ml final volume of 50 mM Tris-HCl, 5 mM MgCl2, 1 mM EDTA, 0.5% (w/v) bovine serum albumin, pH 7.4. Compounds were present at various concentrations and the non specific binding was determined in the presence of 10 μM HU-210. After 1 hour incubation at 30° C., the suspension was rapidly filtered through 0.5% PEI pre-treated GF/B fiber filters on a 96-well harvester and washed 3 times with 3 ml ice-cold binding buffer without bovine serum albumin. Radioactivity on filters was measured with Wallac Winspectral 1414 counter by liquid scintillation in 6 ml Ecoscint H (National Diagnostics, U.K.). Assays were made in triplicates.
# (§4) Binding data were analyzed by non-linear regression with the software GraphPad Prism Version 3.03.
# [2] = biological target: recombinant human cannabinoid 1 receptor (CB1) (Homo sapiens, UniProt P21554); test: In vitro determination of antagonism to CB1-receptor ([35S]GTPγS binding assay, CHO cell membranes); assay type: biochemical; conditions: compound at 1 μM against agonist WIN 55,212-2 (3 nM to 3 μM), effect of Rimonabant (1 μM) defined as 100%
# Sequence of recombinant human cannabinoid 1 receptor (CB1) (P21554 whole entry): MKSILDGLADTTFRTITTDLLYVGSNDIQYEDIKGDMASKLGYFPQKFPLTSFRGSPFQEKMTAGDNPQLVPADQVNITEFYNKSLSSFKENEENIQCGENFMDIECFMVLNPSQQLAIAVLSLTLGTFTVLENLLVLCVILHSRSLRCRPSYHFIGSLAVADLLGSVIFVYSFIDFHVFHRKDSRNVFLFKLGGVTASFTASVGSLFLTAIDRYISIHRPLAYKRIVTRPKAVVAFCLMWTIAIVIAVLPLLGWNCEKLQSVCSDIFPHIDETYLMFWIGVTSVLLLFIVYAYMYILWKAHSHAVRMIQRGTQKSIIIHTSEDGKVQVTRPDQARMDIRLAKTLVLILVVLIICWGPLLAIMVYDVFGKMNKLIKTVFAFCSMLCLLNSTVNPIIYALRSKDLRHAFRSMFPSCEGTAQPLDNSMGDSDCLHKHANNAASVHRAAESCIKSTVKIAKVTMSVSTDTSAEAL
# Experimental: Chinese hamster ovary (CHO) cells stably expressing recombinant human cannabinoid 1 receptor (CB1) were cultured in nutrient mixture Ham's F 12 supplemented with 10% heat-inactivated fetal bovine serum, 2 mM L-glutamine, 50 U/ml penicillin, 50 U/ml streptomycin and 0.5 mg/ml geneticin. In order to obtain cells, culture flasks were washed twice with phosphate buffered saline and scraped. Then, cells were collected by centrifugation (200×g, 10 min) and stored dry at −80° C. Cells were homogenized in ice-cold 20 mM HEPES, 10 mM EDTA (pH 7.5) and centrifuged at 40,000×g for 15 min at 4° C. The membrane pellet was resuspended in 20 mM HEPES, 0.1 mM EDTA (pH 7.5) and centrifuged for 15 min at 4° C. The final membrane pellet was resuspended in 20 mM HEPES, 0.1 mM EDTA (pH 7.5), and divided in aliquots and stored at −80° C. until use.
# The reaction was performed in 96-well plates. Membranes (15 μg protein/well) were incubated for 60 min at 30° C. in buffer (50 mM HEPES, 100 mM KCl, 5 mM MgCl2,1 mM EDTA, 0.1% wt/vol bovine serum albumin, 5 μM GDP, saponin (10 μg/ml), 0.5 nM [^35S]GTPγS, pH 7.4) with compound at a final concentration of 1 μM in either the absence or presence of agonist WIN 55, 212-2 between 3 nM and 3 μM. The incubation was terminated by rapid filtration through Millipore Multiscreen glass fiber FB, and rinsed two-times with ice-cold assay buffer. Filter plates were dried and 30 μl of scintillation liquid was added. Radioactivity was determined using a Wallac Microbeta Trilux. Each experiment was performed at least in duplicate. A WIN 55, 212-2 dose-response experiment either alone or in the presence of Rimonabant (1 μM) was systematically performed.
# The average of basal [^35S]GTPγS binding was subtracted from all binding data. In order to compare the antagonism results from one screening campaign to another one, the difference between the maximal agonist effect of WIN 55, 212-2 alone, and the maximal antagonism effect due to WIN 55, 212-2 plus Rimonabant (1 μM) was defined as 100%.
# [3] = biological target: T2, CB1 receptor; test: In-vitro determination of affinity to CB1/CB2-receptors (radioligand [3H]-CP55940 binding); conditions: binding data per pharmacological methods part I, table does not say whether human transfected receptor or rat cerebellum
# T2 construct: IC50 [nM]; radioligand [3H]-CP55940
# Experimental: as §1, §2, §3, §4
compound,measurement,setting,value
"O=C(NN1CCOCC1)C1=NN(c2ccc(Cl)cc2Cl)C(c2ccc(Cl)cc2)C1 (centres unmarked) [Example 8, 5-(4-Chloro-phenyl)-1-(2,4-dichloro-phenyl)-4,5-dihydro-1H-pyrazole-3-carboxylic acid morpholin-4-ylamide]","Inhibition [%], 10^−7 M",[1],21.9%
same,"Inhibition [%], 10^−8 M",[1],−8.2%
same,Antagonism [%],[2],54%
"O=C(NN1CCCC1)C1=NN(c2ccc(Cl)cc2Cl)C(c2ccc(Cl)cc2)C1 (centres unmarked) [Example 11, 5-(4-Chloro-phenyl)-1-(2,4-dichloro-phenyl)-4,5-dihydro-1H-pyrazole-3-carboxylic acid pyrrolidin-1-ylamide]",IC50,[3],630 nM
"CCCCN(NC(=O)C1=NN(c2ccc(Cl)cc2Cl)C(c2ccc(Cl)cc2)C1)c1ccccc1 (centres unmarked) [Example 29, 5-(4-Chloro-phenyl)-1-(2,4-dichloro-phenyl)-4,5-dihydro-1H-pyrazole-3-carboxylic acid N′-butyl-N′-phenyl-hydrazide]",IC50,[3],> 1000 nM
"CC(C)(C)C1CCC(NC(=O)C2=NN(c3ccc(Cl)cc3Cl)C(c3ccc(Cl)cc3)C2)CC1 (centres unmarked) [Example 31, 5-(4-Chloro-phenyl)-1-(2,4-dichloro-phenyl)-4,5-dihydro-1H-pyrazole-3-carboxylic acid (4-tert-butyl-cyclohexyl)-amide]",IC50,[3],> 1000 nM
"O=C(NC1CCCCC1)C1=NN(c2ccc(Cl)cc2Cl)C(c2ccc(Cl)cc2)C1 (centres unmarked) [Example 41, 5-(4-Chloro-phenyl)-1-(2,4-dichloro-phenyl)-4,5-dihydro-1H-pyrazole-3-carboxylic acid cyclohexylamide]","Inhibition [%], 10^−7 M",[1],3.4%
same,"Inhibition [%], 10^−8 M",[1],−5.2%
same,Antagonism [%],[2],69%
"O=C(C1=NN(c2ccc(Cl)cc2Cl)C(c2ccc(Cl)cc2)C1)N1CCOCC1 (centres unmarked) [Example 54, [5-(4-Chloro-phenyl)-1-(2,4-dichloro-phenyl)-4,5-dihydro-1H-pyrazol-3-yl]-morpholin-4-yl-methanone]",Antagonism [%],[2],46%
"CC(C)N(C(=O)C1=NN(c2ccc(Cl)cc2Cl)C(c2ccc(Cl)cc2)C1)C1CCCCC1 (centres unmarked) [Example 55, 5-(4-Chloro-phenyl)-1-(2,4-dichloro-phenyl)-4,5-dihydro-1H-pyrazole-3-carboxylic acid cyclohexyl-isopropyl-amide]",Antagonism [%],[2],30%
"O=C(C1=NN(c2ccc(Cl)cc2Cl)C(c2ccc(Cl)cc2)C1)N1CCc2sccc2C1 (centres unmarked) [Example 56, [5-(4-Chloro-phenyl)-1-(2,4-dichloro-phenyl)-4,5-dihydro-1H-pyrazol-3-yl]-(6,7-dihydro-4H-thieno[3,2-c]pyridin-5-yl)-methanone]",Antagonism [%],[2],44%
"CC1(C)[C@@H]2CC[C@@]1(C)[C@@H](NC(=O)C1=NN(c3ccc(Cl)cc3Cl)C(c3ccc(Cl)cc3)C1)C2 (some centres unmarked) [Example 58, 5-(4-Chloro-phenyl)-1-(2,4-dichloro-phenyl)-4,5-dihydro-1H-pyrazole-3-carboxylic acid (1,7,7-trimethyl-bicyclo[2.2.1]hept-2-yl)-amide]",Antagonism [%],[2],47%
"CCC1CCC(C)N(C(=O)C2=NN(c3ccc(Cl)cc3Cl)C(c3ccc(Cl)cc3)C2)C1 (centres unmarked) [Example 59, [5-(4-Chloro-phenyl)-1-(2,4-dichloro-phenyl)-4,5-dihydro-1H-pyrazol-3-yl]-(5-ethyl-2-methyl-piperidin-1-yl)-methanone]",Antagonism [%],[2],60%
"O=C(NN1CCCC1)C1=NN(c2ccc(Cl)cc2Cl)C(c2ccc(Br)cc2)C1 (centres unmarked) [Example 61, 5-(4-Bromo-phenyl)-1-(2,4-dichloro-phenyl)-4,5-dihydro-1H-pyrazole-3-carboxylic acid pyrrolidin-1-ylamide]",Antagonism [%],[2],75%
"CC1CCCC(C)N1NC(=O)C1=NN(c2ccc(Cl)cc2Cl)C(c2ccc(Br)cc2)C1 (centres unmarked) [Example 62, 5-(4-Bromo-phenyl)-1-(2,4-dichloro-phenyl)-4,5-dihydro-1H-pyrazole-3-carboxylic acid (2,6-dimethyl-piperidin-1-yl)-amide]",Antagonism [%],[2],67%
"O=C(NN1CCOCC1)C1=NN(c2ccc(Cl)cc2Cl)C(c2ccc(Br)cc2)C1 (centres unmarked) [Example 67, 5-(4-Bromo-phenyl)-1-(2,4-dichloro-phenyl)-4,5-dihydro-1H-pyrazole-3-carboxylic acid morpholin-4-ylamide]",Antagonism [%],[2],52%
"COC(=O)C1=NN(c2ccc(Cl)cc2Cl)C(c2ccc(Cl)cc2)C1 (centres unmarked) [Example 115, 5-(4-Chloro-phenyl)-1-(2,4-dichloro-phenyl)-4,5-dihydro-1H-pyrazole-3-carboxylic acid methyl ester]","Inhibition [%], 10^−7 M",[1],−4.3%
same,"Inhibition [%], 10^−8 M",[1],1.9%
same,Antagonism [%],[2],23%
"CCOC(=O)C1=NN(c2ccc(Cl)cc2Cl)C(c2ccc(Cl)cc2)C1 (centres unmarked) [Example 120, 5-(4-Chloro-phenyl)-1-(2,4-dichloro-phenyl)-4,5-dihydro-1H-pyrazole-3-carboxylic acid ethyl ester]","Inhibition [%], 10^−7 M",[1],7.1%
same,"Inhibition [%], 10^−8 M",[1],−4.1%
same,Antagonism [%],[2],30%
"O=C(O)C1=NN(c2ccc(Cl)cc2Cl)C(c2ccc(F)cc2)C1 (centres unmarked) [Example 126, 1-(2,4-Dichloro-phenyl)-5-(4-fluoro-phenyl)-4,5-dihydro-1H-pyrazole-3-carboxylic acid]",Antagonism [%],[2],30%
"O=C(O)C1=NN(c2ccc(Cl)cc2Cl)C(c2ccc(Br)cc2)C1 (centres unmarked) [Example 128, 5-(4-Bromo-phenyl)-1-(2,4-dichloro-phenyl)-4,5-dihydro-1H-pyrazole-3-carboxylic acid]",Antagonism [%],[2],18%
"O=C(NCC1CCCCCC1)C1=NN(c2ccc(Cl)cc2Cl)C(c2ccc(Cl)cc2)C1 (centres unmarked) [Example 191, 5-(4-Chloro-phenyl)-1-(2,4-dichloro-phenyl)-4,5-dihydro-1H-pyrazole-3-carboxylic acid cycloheptylmethyl-amide]","Inhibition [%], 10^−7 M",[1],67.4%
same,"Inhibition [%], 10^−8 M",[1],30.2%
same,Antagonism [%],[2],82%
"O=C(NN1CC2CCCC2C1)C1=NN(c2ccc(Cl)cc2Cl)C(c2ccc(Cl)cc2)C1 (centres unmarked) [Example 193, 5-(4-Chloro-phenyl)-1-(2,4-dichloro-phenyl)-4,5-dihydro-1H-pyrazole-3-carboxylic acid (hexahydro-cyclopenta[c]pyrrol-2-yl)-amide hydrochloride]",Antagonism [%],[2]; hydrochloride,115%
"Cl.O=C(NN1CCCC1)C1=NN(c2ccc(Cl)cc2Cl)C(c2ccc(Cl)cc2)C1 (centres unmarked) [Example 194, 5-(4-Chloro-phenyl)-1-(2,4-dichloro-phenyl)-4,5-dihydro-1H-pyrazole-3-carboxylic acid pyrrolidin-1-ylamide hydrochloride]","Inhibition [%], 10^−7 M",[1],41.7%
same,"Inhibition [%], 10^−8 M",[1],22.9%
same,Antagonism [%],[2],82%
